US12692261B2, “Substituted heterocyclic compounds and therapeutic uses thereof” (Bayer Aktiengesellschaft, priority 2020, dated 2026)
Read-outs that look alike come from different tables or passages of the source.

Experiments:
[1] = biological target: T1, full-length human CSNK1A1 (Homo sapiens, UniProt P48729); test: CSNK1A1 High ATP Assay (ADP-Glo, 1 mM ATP); format: biochemical; conditions: Table 3, read-out: CSNK1A1 high ATP assay IC50 [mol/l] (median);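 note: 30 min kinase reaction at 22 °C with 100 µM peptide substrate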
T1 construct: N-terminal Glutathion-S-Transferase (GST) and full-length human CSNK1A1; purchased Life Technologies PV4174; host or cells: baculovirus infected insect cells
In short: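 GST-tagged full-length human CSNK1A1 from baculovirus-infected insect cells (typically about 0.4 ng/μL), pre-incubated with compound 15 min at 22 °C. Reaction with biotinylated peptide biotin-Ahx-KRRRAL-pS-VASLPGL at 1 mM ATP. ADP formed read by ADP-Glo luminescence.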

[2] = biological target: T2, wild-type Epidermal Growth Factor Receptor (EGFR) (Homo sapiens, UniProt P00533); test: WT-EGFR Kinase Assay (TR-FRET, 2 mM ATP); format: biochemical
T2 construct: a fragment of human EGFR (amino acids R669 to A1210); made in house; host or cells: Sf9 insect cells
In short: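 GST-fused human EGFR fragment (R669-A1210) from Sf9 cells, typically 7.6 pg/μL, pre-incubated with compound 15 min at 22° C in Hepes pH 7.0 buffer with MgCl2, DTT and vanadate; biotinylated peptide substrate. After EDTA stop, phosphopeptide detected by TR-FRET (anti-phosphotyrosine Tb-cryptate/streptavidin-XL665), 665/620 nm emission ratio.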

[3] = EGFR Wildtyp 2 mM ATP IC50 [mol/l] (median), Table 4
[4] = read-out: EGFR Wildtyp 2 mM ATP IC50 [mol/l] (median), Table 4

T2 sequence (P00533 669-1210): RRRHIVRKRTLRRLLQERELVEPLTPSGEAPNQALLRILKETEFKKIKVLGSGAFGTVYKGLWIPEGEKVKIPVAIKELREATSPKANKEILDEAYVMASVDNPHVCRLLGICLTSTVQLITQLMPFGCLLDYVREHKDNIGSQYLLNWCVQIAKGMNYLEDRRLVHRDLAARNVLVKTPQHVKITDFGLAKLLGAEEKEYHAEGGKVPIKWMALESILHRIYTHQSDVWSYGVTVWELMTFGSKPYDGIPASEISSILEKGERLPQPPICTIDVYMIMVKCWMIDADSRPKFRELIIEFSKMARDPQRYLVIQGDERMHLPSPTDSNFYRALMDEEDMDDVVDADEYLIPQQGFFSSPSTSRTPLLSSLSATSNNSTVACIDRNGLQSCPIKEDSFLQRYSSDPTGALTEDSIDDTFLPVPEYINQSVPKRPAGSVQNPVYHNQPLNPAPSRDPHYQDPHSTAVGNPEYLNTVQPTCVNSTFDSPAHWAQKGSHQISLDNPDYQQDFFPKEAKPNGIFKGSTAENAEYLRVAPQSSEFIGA
T1 sequence (P48729 whole entry): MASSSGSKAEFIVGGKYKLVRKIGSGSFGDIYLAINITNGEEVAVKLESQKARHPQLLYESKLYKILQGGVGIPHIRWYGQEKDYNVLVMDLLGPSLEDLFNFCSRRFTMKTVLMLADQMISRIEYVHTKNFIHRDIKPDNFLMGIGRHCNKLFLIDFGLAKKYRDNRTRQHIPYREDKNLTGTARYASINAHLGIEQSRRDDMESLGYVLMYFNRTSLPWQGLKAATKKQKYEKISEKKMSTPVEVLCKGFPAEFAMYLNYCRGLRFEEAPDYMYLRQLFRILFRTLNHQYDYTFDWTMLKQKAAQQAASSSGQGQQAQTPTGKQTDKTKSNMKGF

| SMILES | IC50 [1] | IC50 [2, 3] | IC50 [2, 4] |
| --- | --- | --- | --- |
| O=C(Nc1cc(-c2[nH]c3cncnc3c2-c2ccccn2)ccn1)C(CC(F)F)c1ccc(F)cc1 (single isomer, unassigned; (-)) [Example 14, (−)-4,4-difluoro-2-(4-fluorophenyl)-N-{4-[7-(pyridin-2-yl)-5H-pyrrolo[3,2-d]pyrimidin-6-yl]pyridin-2-yl}butanamide] | 2140 nM | > 20000 nM | – |
| O=C(Nc1cc(-c2[nH]c3cc(F)cnc3c2-c2ccccn2)ccn1)C(CC(F)F)c1ccc(F)cc1 (single isomer, unassigned; (-)) [Example 18, (−)-4,4-difluoro-2-(4-fluorophenyl)-N-{4-[6-fluoro-3-(pyridin-2-yl)-1H-pyrrolo[3,2-b]pyridin-2-yl]pyridin-2-yl}butanamide] | 542 nM | – | > 20000 nM |
| O=C(Nc1cc(-c2[nH]c3cc(F)cnc3c2-c2ccccc2)ccn1)C(CC(F)F)c1ccc(F)cc1 (single isomer, unassigned; (-)) [Example 20, (−)-4,4-difluoro-2-(4-fluorophenyl)-N-[4-(6-fluoro-3-phenyl-1H-pyrrolo[3,2-b]pyridin-2-yl)pyridin-2-yl]butanamide] | 10100 nM | > 20000 nM | – |
| O=C(Nc1cc(-c2[nH]c3cccnc3c2-c2ccccc2)ccn1)C(CC(F)F)c1ccc(F)cc1 (single isomer, unassigned; (-)) [Example 23, (−)-4,4-difluoro-2-(4-fluorophenyl)-N-[4-(3-phenyl-1H-pyrrolo[3,2-b]pyridin-2-yl)pyridin-2-yl]butanamide] | 3740 nM | > 20000 nM | – |
| O=C(Nc1cc(-c2[nH]c3cccnc3c2-c2cccc(F)n2)ccn1)C(CC(F)F)c1ccc(F)cc1 (single isomer, unassigned; (-)) [Example 26, (−)-4,4-difluoro-2-(4-fluorophenyl)-N-{4-[3-(6-fluoropyridin-2-yl)-1H-pyrrolo[3,2-b]pyridin-2-yl]pyridin-2-yl}butanamide] | 15.8 nM | > 20000 nM | – |
| Cc1cc(F)nc2c(-c3ccccn3)c(-c3ccnc(NC(=O)C(CC(F)F)c4ccc(F)cc4)c3)[nH]c12 (single isomer, unassigned; (-)) [Example 38, (−)-4,4-difluoro-N-{4-[5-fluoro-7-methyl-3-(pyridin-2-yl)-1H-pyrrolo[3,2-b]pyridin-2-yl]pyridin-2-yl}-2-(4-fluorophenyl)butanamide] | 2.26 nM | > 20000 nM | – |
| COc1cc(F)nc2c(-c3ccccn3)c(-c3ccnc(NC(=O)C(CC(F)F)c4ccc(F)cc4)c3)[nH]c12 (single isomer, unassigned; (-)) [Example 41, (−)-4,4-difluoro-N-{4-[5-fluoro-7-methoxy-3-(pyridin-2-yl)-1H-pyrrolo[3,2-b]pyridin-2-yl]pyridin-2-yl}-2-(4-fluorophenyl)butanamide] | 3.37 nM | – | > 20000 nM |
| O=C(Nc1cc(-c2[nH]c3ccc(F)nc3c2-c2ccc(F)cn2)ccn1)C(CC(F)F)c1ccc(F)cc1 (single isomer, unassigned; (-)) [Example 110, (−)-4,4-difluoro-N-{4-[5-fluoro-3-(5-fluoropyridin-2-yl)-1H-pyrrolo[3,2-b]pyridin-2-yl]pyridin-2-yl}-2-(4-fluorophenyl)butanamide] | 47.6 nM | – | > 20000 nM |
| O=C(Nc1cc(-c2[nH]c3c(OC4CC4)cc(F)nc3c2-c2ccccn2)ccn1)C(CC(F)F)c1ccc(F)cc1 (centres unmarked) [Example 45] | 22.3 nM | > 20000 nM | – |
| COc1cnc2c(-c3ccccn3)c(-c3ccnc(NC(=O)C(CC(F)F)c4ccc(F)cc4)c3)[nH]c2n1 (centres unmarked) [Example 101, 4,4-difluoro-2-(4-fluorophenyl)-N-{4-[3-methoxy-7-(pyridin-2-yl)-5H-pyrrolo[2,3-b]pyrazin-6-yl]pyridin-2-yl}butanamide] | 4.82 nM | > 20000 nM | – |
| O=C(Nc1cc(-c2[nH]c3cccnc3c2-c2ccccn2)ccn1)C(CCO)c1ccc(F)cc1 (centres unmarked) [Example 104, 2-(4-fluorophenyl)-4-hydroxy-N-(4-(3-(pyridin-2-yl)-1H-pyrrolo[3,2-b]pyridin-2-yl)pyridin-2-yl)-butanamide] | 6.29 nM | > 20000 nM | – |
| O=C(Nc1cc(-c2[nH]c3nc(OC(F)F)cnc3c2-c2ccccn2)ccn1)C(CC(F)F)c1ccc(F)cc1 (centres unmarked) [Example 105, N-{4-[3-(difluoromethoxy)-7-(pyridin-2-yl)-5H-pyrrolo[2,3-b]pyrazin-6-yl]pyridin-2-yl}-4,4-difluoro-2-(4-fluorophenyl)butanamide] | 10.9 nM | > 20000 nM | – |
| COc1ncnc2c(-c3ccccn3)c(-c3ccnc(NC(=O)C(CC(F)F)c4ccc(F)cc4)c3)[nH]c12 (centres unmarked) [Example 113, 4,4-difluoro-2-(4-fluorophenyl)-N-{4-[4-methoxy-7-(pyridin-2-yl)-5H-pyrrolo[3,2-d]pyrimidin-6-yl]pyridin-2-yl}butanamide] | 157 nM | > 20000 nM | – |
